Results on 7 compounds are retold here after publication PMC4550094 (Journal of biomolecular screening, 2013).

Molecules are shown by their SMILES. Where two headings read alike, the source gives them in different places.

Data set [1] relates to HepG2 cells. In words: LipidTOX Red PLD assay, qHTS, 1536-well high-content imaging. In kind it is cell-based, Human. Conditions: for PLD induction (result in words): HepG2, primary screen and cherry-pick confirmation; for EC50: Homo sapiens, HepG2, 24 h.
A further data set relates to H4 cells. As to conditions: cited from earlier work.
The next data set has as its system Rat brain. As to conditions: cited from earlier work.
Data set [2] relates to HepG2 cells. As to conditions: read-out: Literature-Reported EC50; cited from earlier work.
The test system of the next data set is isolated lamellar bodies. As to conditions: Binding study; cited from earlier work.
The test system of the next data set is hERG channel. Conditions: cited from earlier work.
The mark [3] stands for this setting: read-out: Confirmation EC50 (PLD induction).
[4] abbreviates: read-out: Primary Screen EC50 (PLD induction).

One may read the EC50 as the midpoint of the concentration-response curve. In the case of `Fc1ccc([C@@H]2CCNC[C@H]2COc2ccc3c(c2)OCO3)cc1` [Paroxetine], the “PLD induction (result in words)” value with HepG2 cells [1] is “induce PLD”. In addition, the values for the EC50 in the data set with HepG2 cells [1] (setting [3]) and in the data set with HepG2 cells [1] (setting [4]) were 3 ± 0.7 µM and 5.6 µM, respectively. Moreover, the “Literature-Reported: Active at (concentration)” value in the data set with H4 cells is recorded as “Active at 5 µM”.

As for `CCN(CC)CCCC(C)Nc1c2ccc(Cl)cc2nc2ccc(OC)cc12` (centres unmarked) [Quinacrine], the “PLD induction (result in words)” value in the data set with HepG2 cells [1] was “induce PLD”. Moreover, the concentration for a half-maximal effect (EC50) in the data set on HepG2 cells [1] (setting [3]) was determined as 1 ± 0.2 µM; in the data set with HepG2 cells [1] (setting [4]), 5 µM. The “Literature-Reported: Active at (dose)” value in the data set on Rat brain was “Active at 60 mg/kg”.

As for `C=C[C@H]1C[N@@]2CC[C@H]1C[C@@H]2[C@@H](O)c1ccnc2ccc(OC)cc12` [Quinidine], the EC50 is 13.4 ± 2 µM in the data set with HepG2 cells [1] (setting [3]), 15.8 µM in the data set with HepG2 cells [1] (setting [4]) and 25 µM with HepG2 cells [2].

With `CN(C)CCC=C1c2ccccc2CCc2ccccc21` [Amitriptyline], the EC50 in the data set on HepG2 cells [1] (setting [3]) was 4.6 ± 0.5 µM; with HepG2 cells [1] (setting [4]), 10 µM; with HepG2 cells [2], 15 µM.

Take `N=C(N)c1ccc(OCCCCCOc2ccc(C(=N)N)cc2)cc1` [Pentamidine]: the EC50 is 2.8 ± 2.4 µM in the data set with HepG2 cells [1] (setting [3]), 1.4 µM in the data set on HepG2 cells [1] (setting [4]) and 8.3 µM in the data set with HepG2 cells [2].

Consider `CC(CN(C)C)CN1c2ccccc2CCc2ccccc21` (centres unmarked) [Trimipramine], for which the “PLD induction (result in words)” value with HepG2 cells [1] is reported as “induce PLD”. In addition, the EC50 was found to be 8.7 ± 1.2 µM with HepG2 cells [1] (setting [3]) and 3.5 µM with HepG2 cells [1] (setting [4]). Moreover, the “Literature-Reported: Active at (concentration)” value in the data set on isolated lamellar bodies is on record as “Active at 1 mM”.

Consider `CC(C)(C)c1ccc(C(=O)CCCN2CCC(OC(c3ccccc3)c3ccccc3)CC2)cc1` [Ebastine], for which, in the data set on HepG2 cells [1], the “PLD induction (result in words)” value was “significantly induced PLD formation”. Moreover, the HERG channel block entry with hERG channel is listed as “blocking”.
